{"source": "paper PMC5062470", "about": "“The mGluR2 positive allosteric modulator, SAR218645, improves memory and attention deficits in translational models of cognitive symptoms associated with schizophrenia” (Scientific Reports, 2016)", "key": {"OF1 mice": {"system": "OF1 mice", "experiment": "Maximal electroshock seizure (MES) test", "type": "in vivo", "conditions": "10 mg/kg ip; vehicle 100", "protocol": "SAR218645 (30 mg/kg, po) and the reference anticonvulsant agent, diazepam (10 mg/kg), were administered ip to OF1 mice (12–14 g) 30 min prior to test, respectively. An electrical stimulus (60 Hz, 0.8 ms rectangular pulse, 0.4 s duration, 50 mA) was applied to both corneas. The occurrence of tonic extension of the hindlimbs was noted."}, "rat mGluR3": {"target": "T1, rat mGluR3 (Rattus norvegicus, UniProt P31422)", "T1 construct": "expressed in transfected cells; host or cells: inducible HEK-293 cell line (membranes)", "T1 sequence (P31422 23-879)": "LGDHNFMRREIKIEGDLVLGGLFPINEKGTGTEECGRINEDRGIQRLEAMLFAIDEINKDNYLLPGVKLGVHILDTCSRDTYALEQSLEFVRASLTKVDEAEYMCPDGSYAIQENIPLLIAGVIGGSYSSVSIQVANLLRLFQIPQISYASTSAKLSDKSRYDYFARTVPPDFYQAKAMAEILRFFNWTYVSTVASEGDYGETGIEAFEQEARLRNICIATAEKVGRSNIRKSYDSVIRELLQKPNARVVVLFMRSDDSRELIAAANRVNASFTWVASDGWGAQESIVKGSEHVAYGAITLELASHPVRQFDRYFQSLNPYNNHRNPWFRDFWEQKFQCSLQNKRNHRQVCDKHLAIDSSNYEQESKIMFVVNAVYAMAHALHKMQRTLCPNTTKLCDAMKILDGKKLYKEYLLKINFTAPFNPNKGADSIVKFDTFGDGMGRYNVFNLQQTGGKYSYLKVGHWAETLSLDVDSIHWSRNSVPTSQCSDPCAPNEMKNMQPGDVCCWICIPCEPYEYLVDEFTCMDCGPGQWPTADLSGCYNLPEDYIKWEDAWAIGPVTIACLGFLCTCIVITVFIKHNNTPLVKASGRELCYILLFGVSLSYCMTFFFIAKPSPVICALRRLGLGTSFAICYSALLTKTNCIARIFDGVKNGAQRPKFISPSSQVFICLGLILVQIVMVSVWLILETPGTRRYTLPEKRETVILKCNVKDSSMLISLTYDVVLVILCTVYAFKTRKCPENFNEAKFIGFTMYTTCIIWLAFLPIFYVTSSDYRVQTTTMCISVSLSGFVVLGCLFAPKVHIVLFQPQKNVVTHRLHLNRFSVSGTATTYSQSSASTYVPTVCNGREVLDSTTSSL", "experiment": "[3H]LY341495 binding to membranes", "conditions": "Fig. 5C", "protocol": "Membranes were prepared from an inducible HEK-293 cell line expressing rat mGluR2 or mGluR3. Binding assay was adapted from Johnson et al.[29]. Briefly, [^3H]LY341495 (1.4 nM) was evaluated for binding in the presence or in the absence of orthosteric and allosteric ligands. […] Addition of 5–10 μg membrane protein initiated the incubation. After 45 min at room temperature, the incubation was terminated by rapid filtration followed by scintillation counting. Ki’s were calculated using 4-parameter curve fitting."}, "rat mGluR2": {"target": "rat mGluR2 (Rattus norvegicus, UniProt P31421)", "sequence (P31421 19-872)": "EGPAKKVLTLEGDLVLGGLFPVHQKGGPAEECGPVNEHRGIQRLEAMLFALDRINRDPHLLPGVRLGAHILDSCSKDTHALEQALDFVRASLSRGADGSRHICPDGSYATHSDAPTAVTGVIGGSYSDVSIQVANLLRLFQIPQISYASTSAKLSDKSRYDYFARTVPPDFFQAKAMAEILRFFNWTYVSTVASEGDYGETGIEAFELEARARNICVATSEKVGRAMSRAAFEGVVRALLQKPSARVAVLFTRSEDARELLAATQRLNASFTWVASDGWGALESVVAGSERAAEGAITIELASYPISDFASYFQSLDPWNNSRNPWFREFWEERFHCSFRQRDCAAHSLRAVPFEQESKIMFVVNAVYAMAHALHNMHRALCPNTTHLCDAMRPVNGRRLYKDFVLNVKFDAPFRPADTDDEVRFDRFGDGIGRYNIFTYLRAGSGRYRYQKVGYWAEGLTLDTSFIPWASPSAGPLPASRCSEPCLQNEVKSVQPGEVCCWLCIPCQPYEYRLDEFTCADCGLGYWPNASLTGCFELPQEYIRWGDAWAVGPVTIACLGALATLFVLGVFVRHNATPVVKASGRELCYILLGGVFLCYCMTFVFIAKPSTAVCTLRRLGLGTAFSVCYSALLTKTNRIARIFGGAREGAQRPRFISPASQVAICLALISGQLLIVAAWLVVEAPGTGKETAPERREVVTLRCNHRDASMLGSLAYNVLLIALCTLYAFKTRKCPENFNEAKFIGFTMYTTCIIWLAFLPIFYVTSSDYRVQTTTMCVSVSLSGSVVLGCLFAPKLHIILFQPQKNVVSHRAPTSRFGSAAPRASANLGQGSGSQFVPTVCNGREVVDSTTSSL", "experiment": "[3H]LY341495 binding to membranes", "parameters": "expressed in transfected cells; host or cells: inducible HEK-293 cell line (membranes)", "protocol": "Binding assay was adapted from Johnson et al.[29]. […] Addition of 5–10 μg membrane protein initiated the incubation. After 45 min at room temperature, the incubation was terminated by rapid filtration followed by scintillation counting. Ki’s were calculated using 4-parameter curve fitting."}, "CD-1 mice [1]": {"system": "CD-1 mice", "experiment": "DOI-induced head-twitch behaviors", "type": "in vivo", "conditions": "po; DOI 1 mg/kg ip", "protocol": "Male CD-1 mice weighing 25–30 g at the time of testing were used. Animals were brought into the testing area and allowed at least 30 min to acclimatize. The behavior observation was conducted in a wire test chamber measuring 10 cm^3. SAR218645 or the selective 5-HT2A receptor antagonist, volinanserin, was administered po at various times before administration of DOI. DOI was injected ip at a dose of 1 mg/kg. Five minutes later behavioral observation commenced. A trained (blinded) observer continuously watched the mice for 20 min and noted the number of DOI-induced head twitches during this time. The number of head twitches per group was averaged and SAR218645 or volinanserin plus DOI were compared to DOI alone. Three to eight animals per group were used."}, "native mouse mGluR2": {"target": "T2, native mouse mGluR2 (Mus musculus, UniProt Q14BI2)", "T2 construct": "SAR218645 acted as a pure mGluR2 PAM at native mouse mGluR2 in the cortex; from tissue; host or cells: mouse cortex membranes", "T2 sequence (Q14BI2 19-872)": "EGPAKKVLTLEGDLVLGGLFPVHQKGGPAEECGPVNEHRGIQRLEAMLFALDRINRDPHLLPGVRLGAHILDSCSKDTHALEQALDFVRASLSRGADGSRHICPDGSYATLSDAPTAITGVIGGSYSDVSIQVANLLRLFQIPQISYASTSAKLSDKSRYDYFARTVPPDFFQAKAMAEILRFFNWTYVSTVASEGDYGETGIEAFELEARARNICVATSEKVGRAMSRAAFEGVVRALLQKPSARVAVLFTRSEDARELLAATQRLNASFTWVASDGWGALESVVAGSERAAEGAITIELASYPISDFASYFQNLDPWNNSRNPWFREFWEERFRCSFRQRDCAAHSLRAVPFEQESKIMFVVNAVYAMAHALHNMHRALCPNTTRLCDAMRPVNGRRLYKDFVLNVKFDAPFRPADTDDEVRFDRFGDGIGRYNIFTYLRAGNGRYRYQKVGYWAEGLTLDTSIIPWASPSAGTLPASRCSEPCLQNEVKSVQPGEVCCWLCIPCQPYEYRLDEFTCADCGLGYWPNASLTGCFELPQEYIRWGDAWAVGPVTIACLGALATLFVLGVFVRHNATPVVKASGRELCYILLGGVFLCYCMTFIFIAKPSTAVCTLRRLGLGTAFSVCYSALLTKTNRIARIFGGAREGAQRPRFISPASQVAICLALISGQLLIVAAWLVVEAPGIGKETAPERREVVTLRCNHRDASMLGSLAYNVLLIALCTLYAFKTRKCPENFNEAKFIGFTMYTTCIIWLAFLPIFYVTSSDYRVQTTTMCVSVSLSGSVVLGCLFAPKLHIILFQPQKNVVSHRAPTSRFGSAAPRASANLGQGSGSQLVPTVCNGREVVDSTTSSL", "experiment": "[35S]GTPγS binding to mouse cortex", "type": "biochemical", "conditions": "glutamate EC20 (1 μM) + SAR218645", "protocol": "The assay was performed in 96-well filtration plates in 250 μl total volume. […] For termination of the reaction, the plate was filtered and dried prior to adding 50 μl Microscint 40, and counted on the 1450 TopCount Microbeta Counter. EC50 were calculated using 4-parameter curve fitting."}, "CD-1 mice [2]": {"system": "CD-1 mice", "experiment": "LY404039-induced turning behavior", "type": "in vivo", "conditions": "LY341495 0.3 mg/kg ip; P < 0.001", "protocol": "Under light restraint, a single unilateral intracortical infusion of the selective mGluR2/3 receptor agonist, LY404039, was performed in CD-1 mice (25–30 g at arrival). An injection point was assessed using the eyes and back of the skull as landmarks. Immediately following the application of LY404039, the observation period began. The number of contralateral turns elicited in a 5 min period was recorded. SAR218645 was administered orally 60 min before infusion of LY404039 and the potentiation of the turning behavior was noted. The selective mGluR2/3 receptor antagonist, LY341495, was administered ip 90 min prior to infusion of LY404039. Statistical analysis was performed using Kruskal Wallis test followed by a Wilcoxon two-tailed comparison. Ten animals per group were used."}, "Sprague-Dawley rats": {"system": "Sprague-Dawley rats", "experiment": "Amphetamine-induced disruption of auditory evoked potentials (AEP)", "type": "in vivo", "conditions": "3 mg/kg po; amphetamine 3 mg/kg", "from_the_text": "All recordings were made using Spike2 software (Cambridge Electronic Design, Cambridge, UK) running on a Windows PC connected to a 1401 interface (Cambridge Electronic Design, Cambridge, UK). EEG recordings were created by connecting the skull plug to an amplifying head stage (AI 1401, Axon Instruments, Union City, CA, USA), via a 6-channel commutator and cable (Plastics One, Roanoke, VA, USA). The signal was then further amplified with a multichannel amplifier (Cyberamp 380, Axon Instruments, Union City, CA, USA). Auditory stimuli were controlled by the interface via an eight channel power amplifier (SA8, Tucker Davis Technologies, Alachua, FL) connected to a patch panel (PP16, Tucker Davis Technologies), which was connected to speakers located above each cage (TDT Magnetic Speakers, Tucker Davis Technologies). During recording sessions, animals were placed inside standard mouse cages (30 × 15 × 15 cm) and rigged so that the six channel cables could connect with the rest of the apparatus outside of the cage.\nMale Sprague-Dawley rats (150–180 g at arrival) were anesthetized with 3% isoflurane and their scalp was shaved and prepared for surgery. An incision was made in the scalp and the skin was retracted to allow direct contact with the skull surface. The skull was cleaned with a dry Q-tip and five holes were drilled through the skull. Three holes were drilled at coordinates AP + 1 mm, ML + 1 mm (reference); AP−4 mm, ML ± 4 mm (leads 1 and 2) relative to bregma, while an additional hole was drilled in the frontal area (ground) and another hole was drilled at the midpoint between the anterior and posterior coordinate (anchor). […]\nAEP data analysis: Data were collected and analyzed using Spike2 software (CED Software, Cambridge, UK). […] Then a horizontal cursor was placed at the highest and lowest (peak and trough) point of the P1/N1 wave, for both the wave occurring to the first tone (S1) and to the second tone (S2), and the value was recorded into an Excel spreadsheet. […]"}}, "data": [{"molecule": "CN1C(=O)CN=C(c2ccccc2)c2cc(Cl)ccc21", "note": "[Diazepam, reference compound]", "values": [{"measurement": "Tonic seizures", "setting": "OF1 mice", "value": 0, "unit": "%"}]}, {"molecule": "N[C@@]1(C(=O)O)CS(=O)(=O)[C@H]2[C@H](C(=O)O)[C@H]21", "note": "[LY404039, (-)-(1R,4S,5S,6S)-4-amino-2-sulfonylbicyclo[3.1.0]hexane-4,6-dicarboxylic acid, reference compound]", "values": [{"measurement": "Ki", "setting": "rat mGluR3", "value": 901, "unit": "nM"}, {"measurement": "Ki", "setting": "rat mGluR2; Fig. 5A", "value": 462, "unit": "nM"}]}, {"molecule": "COc1cccc([C@H](O)C2CCN(CCc3ccc(F)cc3)CC2)c1OC", "note": "[volinanserin, reference compound]", "values": [{"measurement": "effect on DOI-induced head twitches (reference)", "setting": "CD-1 mice [1]", "value": "inhibited"}]}, {"molecule": "N[C@@H](CCC(=O)O)C(=O)O", "note": "[Glutamate, L-glutamatic acid, reference compound]", "values": [{"measurement": "Ki", "setting": "rat mGluR3", "value": 400, "unit": "nM"}, {"measurement": "maximal binding, glutamate alone", "setting": "rat mGluR2; absence of SAR218645, Fig. 5B", "value": 108, "unit": "%"}]}, {"molecule": "N[C@](CC1c2ccccc2Oc2ccccc21)(C(=O)O)[C@H]1C[C@@H]1C(=O)O", "note": "[LY341495, reference compound]", "values": [{"measurement": "antagonism of the SAR218645 potentiation", "setting": "native mouse mGluR2", "value": "blocked"}, {"measurement": "antagonism of the effect of SAR218645 (10 mg/kg) on turning", "setting": "CD-1 mice [2]", "value": "blocked"}]}, {"molecule": "O=C(Oc1ccc(Br)cc1)N1CCN2CCC1CC2", "note": "[SSR180711, reference compound]", "values": [{"measurement": "effect on amphetamine-disrupted auditory gating (S2/S1 ratio)", "setting": "Sprague-Dawley rats", "value": "attenuated amphetamine-induced disrupted gating"}]}]}
